Laboratory results reported in publication PMC12040169 (PLOS Biology, 2025).

Assay: in vitro
Conditions: human, hela cells, % viability

Row | SMILES | viability at 28.5 h, 10 µM
1 | CC(C)CC1OC(NC2CCCCCC2)=NC1=O (centres unmarked) [CBK074901] | 88.8%
2 | Cc1sc(NC(=S)NC(=O)C2CCCCC2)c(C(N)=O)c1C [CBK266273] | 97.3%
3 | O=S(=O)(Nc1ccccn1)c1cccs1 [CBK043773] | 94.7%
4 | Cn1c(COc2cccc3cccnc23)nnc1SCC(=O)O [CBK300505] | 89.4%
5 | COc1ccc(-c2c(-c3ccc(F)cc3)[nH]c3[nH]c(=O)[nH]c(=O)c23)cc1 [CBK288232] | 111%
6 | Cc1ccc(S(=O)(=O)NC2c3cccc4cccc(c34)C2Sc2ccccn2)cc1 (centres unmarked) [CBK265840] | 91.6%
7 | CCOc1cc(C=Cc2cc(C(=O)O)c3ccccc3n2)ccc1OC(F)F [CBK296952] | 86.3%
8 | CC1CN(C(C)N2CC(C)OC2=O)C(=O)O1 (centres unmarked) [CBK022981] | 89.8%
9 | Cc1ccc(S(=O)(=O)/N=C(/NCc2ccc(Cl)cc2)Nc2nc(C)cc(C)n2)cc1 [CBK263785] | 102%
10 | COc1cc(OC)cc(C(=O)N(CCC#N)Cc2ccco2)c1 [CBK305133] | 96.3%
11 | CCn1c(C)nc2cc(Cl)c(Cl)cc21 [CBK115577] | 89.3%
12 | O=S(=O)(NC1CCCCC1Oc1ccccc1)c1ccc(Cl)cc1 (centres unmarked) [CBK264697] | 114%
13 | CCC(C)NC(=O)CSc1nnc(-c2cccs2)n1CC (centres unmarked) [CBK296960] | 86.3%
14 | CN1CCC(N(C)C/C(Cl)=C/c2ccccc2)CC1 [CBK261903] | 92.1%
15 | Cc1ccccc1C(=O)NC1(C(F)(F)F)C(=O)Nc2c1c(=O)[nH]c(=O)n2CCc1ccccc1 (centres unmarked) [CBK267483] | 86.6%
16 | c1cc2c(cc1CNc1nnn[nH]1)OCO2 [CBK018783] | 91.5%
17 | CN(C)CC1CN(C(=O)Cc2ccccc2F)Cc2ccccc2O1 (centres unmarked) [CBK285327] | 90.4%
18 | Cc1nc2c(c(CCC(=O)O)n1)CCCC2 [CBK023157] | 98.4%
19 | O=C1CCCN1CC(=O)N1CCCC1c1nc2ccccc2[nH]1 (centres unmarked) [CBK282315] | 86.3%
20 | Nc1ncc(-c2cccc(CO)c2)nc1N1CCOCC1 [CBK063406] | 97.6%
21 | Cc1c(CN2CCCC(c3cc4cccnc4[nH]3)C2)cnn1C (centres unmarked) [CBK284683] | 99.7%

Row | SMILES | viability at 28.5 h, 10 µM
22 | COc1ccc([C@@]23CC[C@@H](NC(=O)c4ccc(SC(F)(F)F)cc4)C[C@@H]2N(C)CC3)cc1OC [CBK076654T] | 94.9%
23 | CC1Cc2cc(C(=O)N3CCCCC3CN(C)C)ccc2O1 (centres unmarked) [CBK282193] | 110%
24 | Cc1[nH]c2cccc(C(=O)N3CCCCC3CCNC(=O)c3ccccc3)c2c1C (centres unmarked) [CBK285976] | 82%
25 | CCCn1c(N)c(C(=O)CSc2ncnc3sc4c(c23)CCCC4)c(=O)[nH]c1=O [CBK297556] | 77.8%
26 | CN(C)CCN(C)c1ccc(/C=C/c2ccccc2)cn1 [CBK037026] | 98.4%
27 | COc1ccc(OC)c(-c2cc(C(=O)O)c(C)o2)c1 [CBK049343] | 97.9%
28 | Cn1ccc(C(=O)NC(Cc2cccs2)c2nccs2)n1 (centres unmarked) [CBK285135] | 91.4%
29 | CCCn1cnnc1C(C)NS(=O)(=O)c1cccc(C(=O)N2CCC2)c1 (centres unmarked) [CBK306569] | 103%
30 | O=C(NC1CCCCC1)N[C@H]1CO[C@H]2[C@@H]1OC[C@@H]2Nc1nccc(C2CCCC2)n1 [CBK289531] | 82.7%
31 | COc1ccc(C(C)C)cc1-c1nccnc1NCC1COC(C)(C)O1 (centres unmarked) [CBK036930] | 101%
32 | CN1C(=O)c2cccc3c(S(=O)(=O)Nc4ccc(C(=O)O)c(O)c4)ccc1c23 [CBK299799] | 109%
33 | COc1ccc(CC(=O)NC(CCSC)c2nc3ccccc3[nH]2)cc1 (centres unmarked) [CBK306050] | 82.6%
34 | COC(=O)c1cc(=O)c2ccccc2o1 [CBK000064] | 91.8%
35 | CC1=CC(C)C(CN(CCC[N+](C)(C)C)C(=O)Nc2ccccc2)C(C)C1 (centres unmarked) [CBK262507I] | 84.3%
36 | CC1Cc2cc(-c3cncn3CC(=O)NC(C)(C)C)ccc2N1C (centres unmarked) [CBK281699] | 77.3%
37 | CCn1c(=O)n(CC(=O)NCc2cccc(F)c2)c2cccnc21 [CBK283891] | 86.4%
38 | O=C(Nc1ccc(N2CCNCC2)c2ccccc12)c1coc2c1C(=O)CCC2 [CBK038946T] | 81.5%
39 | CCOc1ccc(C(=O)C2=C(O)C(=O)N(CCN(C)C)C2c2cccnc2)cc1Cl (centres unmarked) [CBK266585] | 96.5%
40 | O=C(CCn1c(CO)nc2ccccc21)c1ccccc1 [CBK296947] | 102%
41 | Clc1ccc(Cl)c(-c2nc3ccccc3o2)n1 [CBK095353] | 91.6%
42 | O=C(Nc1ccccc1C(=O)O)c1ccccc1O [CBK012116] | 89%

Row | SMILES | viability at 28.5 h, 10 µM
43 | O=C(Nc1cccnc1)c1cc(C(=O)c2ccc(Cl)cc2Cl)c[nH]1 [CBK107406] | 93.7%
44 | COc1ccc(CSc2nnc(-c3ccco3)n2N)cc1 [CBK267548] | 90.3%
45 | CN1CCN(CCC(=O)N2CCN(C(=O)c3ccco3)CC2)CC1 [CBK144481] | 89.3%
46 | COC(=O)[C@@H](C)NC(=O)[C@@H]1CN(C(=O)c2cccc(F)c2)CCN1C(C)=O [CBK289620] | 91.3%
47 | COc1ccc(C(=O)N2CCC3(CCCN(C(=O)c4ccc5[nH]c(=O)[nH]c5c4)C3)C2)cc1OC (centres unmarked) [CBK137086] | 98.5%
48 | N#Cc1cccc(CN2CCC(Cc3ccccc3)CC2)c1 [CBK126380] | 87.1%
49 | CNC(=O)c1sc2ccccc2c1C1CCN(C(=O)Cc2coc3c(C)c(C)ccc23)C1 (centres unmarked) [CBK285876] | 90.3%
50 | CC1CCN(C(=O)CSc2ccc3nnc(-c4ccccc4)n3n2)CC1 [CBK287512] | 77.9%
51 | COc1ccc(C(NC(C)=O)c2nccc3cc(OC)c(OC)cc23)cc1OC (centres unmarked) [CBK270219] | 94.6%
52 | CC(Sc1ccccn1)C(=O)Nc1ccc(S(N)(=O)=O)cc1 (centres unmarked) [CBK265579] | 97.1%
53 | c1cnn(C2CCN(Cc3ccc(Oc4cnccn4)cc3)CC2)c1 [CBK306417] | 85.7%
54 | COc1ccc(-c2c[n+]3ccccc3c(=O)[nH]2)cc1 [CBK011078B] | 93.8%
55 | Cc1ccc(Nc2nc(N)nc(CSc3nnc(-c4ccncc4)o3)n2)cc1 [CBK266464] | 97.7%
56 | CC(C)CCCC(=O)n1ccn(-c2ccc(N(C)C)cc2)c1=O [CBK106603] | 92.7%
57 | CCc1nc2ccc(C(=O)NCCN3CCOCC3)cn2c1N(C=O)Cc1ccc(OC)cc1 [CBK146625] | 97.9%
58 | O=C(NC(c1ccccc1)c1ccsc1)C1CCN(CCc2ccccc2)CC1 (centres unmarked) [CBK148433] | 98.1%
59 | COc1ccc(CCCC(=O)Nc2cc(N3CCNCC3)nc(SC)n2)cc1OC [CBK050261T] | 101%
60 | CC(C)Nc1nc2ccccc2nc1SCCC(=O)O [CBK107858] | 106%
61 | Cn1ncc(Nc2ccccc2)c1C(=O)O [CBK013004] | 114%
62 | O=C(O)c1ccc(NS(=O)(=O)c2ccc(Cl)cc2)cc1O [CBK200023] | 106%
63 | CC1(C)NC(C)(C)C(=N\O)/C(=N\O)C/1=N\O [CBK261512] | 110%

Same assay, conditions: human, hela cells, % viability, bulk resorufin, single well

Row | SMILES | viability at 28.5 h, 10 µM
64 | COc1ccc(Cl)cc1N1CCN(Cc2c(F)cccc2F)CC1 [CBK126410] | 90.9%
65 | O=C(O)COc1ccccc1/C=C1\C(=O)NC(=O)N(c2ccc(OCc3ccccc3)cc2)C1=O [CBK265419] | 114%
